Data taken from PMC9437101, “Curcumin-based-fluorescent probes targeting ALDH1A3 as a promising tool for glioblastoma precision surgery and early diagnosis” (Communications Biology, 2022).
Where “and” joins values, the source holds several entries; their conditions need not be identical. Equal entries are not always repeated.

Experiments:
[1] = test system: U87MG glioblastoma cells; assay: Fluorescent microscopy of probe in cells; type: cell-based, human; settings: 10 µM; for fluorescence in cells: 2 h
Experimental: In total, 20,000 cells/ml of U87MG, HEK293T, hASTRO and 4T1 were seeded onto glass cover slips in 24-well plates. The cells incubated at 37 °C in a 5% CO2 atmosphere overnight. Cells were washed with 1 ml of PBS buffer two times, then a 10 μM solution of probes was added to each well for 2 h. For nuclei staining, 1 µg/ml of DAPI was added the last 15 min of treatment. The cover slips were removed and washed with PBS buffer, and fixed with 0.5 ml of 4% formaldehyde solution for 10 min. The cover slips were washed with 1 ml of PBS, then slides were prepared using Mounting Media (Merck Life Science). Fluorescence images were acquired using a Leica THUNDER Imager 3D Live Cell (Leica Microsystems, Wetzlar, Germany) microscope equipped with an S Fluor 40×/1.3 objective using the LAS X software.

[2] = biological target: T1, ALDH1A2 (Homo sapiens, UniProt O94788); assay: LC-HRMS analysis of isoenzyme activity in presence of probe; type: biochemical; settings: 1 h incubation, LC-HRMS
T1 construct: E. coli BL21 (DE3) were transformed with the full-length expression vector of each isoform; His-tag; made in house; host or cells: E. coli BL21 (DE3)
T1 sequence (O94788 1-518): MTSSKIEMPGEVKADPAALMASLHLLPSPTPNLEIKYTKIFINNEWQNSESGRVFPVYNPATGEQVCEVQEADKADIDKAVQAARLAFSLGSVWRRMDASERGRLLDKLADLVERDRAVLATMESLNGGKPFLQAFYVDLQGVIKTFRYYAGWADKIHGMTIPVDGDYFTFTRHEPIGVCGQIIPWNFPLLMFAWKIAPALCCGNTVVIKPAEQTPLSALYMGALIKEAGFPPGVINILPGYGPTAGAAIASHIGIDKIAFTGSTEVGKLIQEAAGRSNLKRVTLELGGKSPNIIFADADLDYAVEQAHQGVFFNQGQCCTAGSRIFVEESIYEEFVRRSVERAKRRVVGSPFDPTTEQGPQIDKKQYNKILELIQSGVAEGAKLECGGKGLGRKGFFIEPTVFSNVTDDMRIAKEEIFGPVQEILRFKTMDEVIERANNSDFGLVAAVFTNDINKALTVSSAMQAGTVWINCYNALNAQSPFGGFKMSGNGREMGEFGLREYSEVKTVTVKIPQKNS
Experimental: (§1) These analyses were carried out by using UPLC-HRMS procedure with Vanquish UPLC system coupled to a Thermo Scientific Q-Exactive Plus, operating in negative electrospray ionization mode. The chromatographic separation was carried out using a Phenomenex Synergi 4 µ Polar-RP 80 A (150 × 2 mm) equipped with a Phenomenex Polar-RP (4 mm × 2 mm) security guard column. The mobile phase consisted of A: acetonitrile 0.1% formic acid and B: 0.1% formic acid. We used a linear elution gradient, starting from 80% of A to 5% A in 3 min, 3 min at 5% A, an equilibration of 4 min for a total run time of 10.00 min, at 300 µl/min flow rate. The autosampler temperature was set at 15 °C, the injection volume was 5 µl and column was maintained at 40 °C. The heated electrospray ionization source was used, with a spray voltage of […], with a capillary temperature of 300 °C, a heater temperature of 350 °C, a sheat gas flow of 45 arbitrary units (AU), an auxiliary gas flow of 10 AU and a sweep gas flow of 0 AU. During the Parallel Reaction Monitoring acquisition in negative ion mode, the instrument operated at 17,500 resolution in presence of the inclusion list (m/z = 596.20384 and m/z = 612.19875 for Probe 10 and Probe 10-COOH respectively; m/z = 534.18819 and m/z = 506.156888 for Probe 11 and Probe 11-COOH respectively) with an automatic gain control target of 2 × 10^5 charges and a maximum injection time of 100 ms. Before injecting the samples, the blanks in the list were analyzed and every biological sample was analyzed in duplicate. The biological samples analyzed were as follow: (1) Enzymatic assay Buffer; (2) Enzymatic assay Buffer + NAD^+; (3) Enzymatic assay Buffer + Probe 10 or Probe 11; (4) Enzymatic assay Buffer + ALDH1A1; (5) Enzymatic assay Buffer + ALDH1A2; (6) Enzymatic assay Buffer + ALDH1A3; (7) Enzymatic assay Buffer + ALDH1A1 + Probe 10 or Probe 11; (8) Enzymatic assay Buffer + ALDH1A2 + Probe 10 or Probe 11; (9) Enzymatic assay Buffer + ALDH1A3 + Probe 10 or Probe 11. All samples were diluted 1:1 with ACN, then 1:100 in ACN-Water 1:1 prior the LC-HRMS analysis.

[3] = biological target: T2, ALDH1A3 (Homo sapiens, UniProt P47895); assay: as above; type: biochemical; settings: for oxidation of probe to carboxylic derivative / substrate behaviour: 1 h incubation, LC-HRMS
T2 construct: E. coli BL21 (DE3) were transformed with the full-length expression vector of each isoform; His-tag; made in house; host or cells: E. coli BL21 (DE3)
T2 sequence (P47895 1-512): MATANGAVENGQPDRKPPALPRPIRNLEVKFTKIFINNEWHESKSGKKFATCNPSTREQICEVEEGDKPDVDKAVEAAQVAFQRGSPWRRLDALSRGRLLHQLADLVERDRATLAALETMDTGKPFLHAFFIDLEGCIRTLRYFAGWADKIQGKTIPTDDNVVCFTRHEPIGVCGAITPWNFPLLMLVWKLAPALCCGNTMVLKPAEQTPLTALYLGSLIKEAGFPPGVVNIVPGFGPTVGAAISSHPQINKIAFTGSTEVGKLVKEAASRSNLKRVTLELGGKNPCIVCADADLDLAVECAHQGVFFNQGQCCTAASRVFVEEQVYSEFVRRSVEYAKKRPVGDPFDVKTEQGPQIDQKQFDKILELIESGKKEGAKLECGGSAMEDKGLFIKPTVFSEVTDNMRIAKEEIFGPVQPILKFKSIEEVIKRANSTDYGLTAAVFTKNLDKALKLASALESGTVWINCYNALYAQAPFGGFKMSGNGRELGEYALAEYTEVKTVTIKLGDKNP
Experimental: as §1

[4] = biological target: T3, ALDH1A1 (Homo sapiens, UniProt P00352); assay: as above; type: biochemical; settings: 1 h incubation, LC-HRMS
T3 construct: E. coli BL21 (DE3) were transformed with the full-length expression vector of each isoform; His-tag; made in house; host or cells: E. coli BL21 (DE3)
T3 sequence (P00352 1-501): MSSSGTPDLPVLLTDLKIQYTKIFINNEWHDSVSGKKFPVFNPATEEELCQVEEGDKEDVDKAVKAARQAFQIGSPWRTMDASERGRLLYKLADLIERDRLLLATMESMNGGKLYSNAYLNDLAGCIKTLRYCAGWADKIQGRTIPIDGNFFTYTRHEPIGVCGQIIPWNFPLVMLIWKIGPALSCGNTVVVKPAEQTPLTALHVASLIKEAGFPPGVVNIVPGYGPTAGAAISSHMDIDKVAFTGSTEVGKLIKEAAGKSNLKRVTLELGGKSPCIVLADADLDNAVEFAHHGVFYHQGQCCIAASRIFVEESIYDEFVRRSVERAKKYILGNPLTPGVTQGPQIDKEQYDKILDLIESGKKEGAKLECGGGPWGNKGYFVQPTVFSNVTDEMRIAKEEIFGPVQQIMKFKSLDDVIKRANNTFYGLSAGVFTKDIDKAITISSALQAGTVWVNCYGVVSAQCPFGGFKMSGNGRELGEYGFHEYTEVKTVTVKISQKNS
Experimental: as §1

Row | SMILES | fluorescence in cells [1] | oxidation of probe to carboxylic derivative / substrate behaviour [2] | oxidation of probe to carboxylic derivative / substrate behaviour [3] | oxidation of probe to carboxylic derivative / substrate behaviour [4] | If ROI ([1]; U87-MG, 2 h (Fig. 5g)) | AREA TIC of Probe 10 ([3]; ALDH1A3, 1 h)
1 | CCOC(=O)Cn1cc(COc2ccc(/C=C/C(=O)/C=C(O)/C=C/c3ccc(O)c(OC)c3)cc2OC)nn1 [Probe 11] | fluorescence has been observed using Probe 11 only in U87MG cell lines | has not been shown to be a substrate | has not been shown to be a substrate | has not been shown to be a substrate | – | –
2 | COc1cc(/C=C/C(O)=C/C(=O)/C=C/c2ccc(OCc3cn(CCOc4ccc(C=O)cc4)nn3)c(OC)c2)ccc1O [Probe 10] | can determine fluorescence | in part | no oxidation could be detected | fully metabolized | 238.82 a.u. and 283.69 a.u. and 302.7 a.u. and 195.53 a.u. and 182.63 a.u. | 17952906 and 17991269 and 13247597 and 14014206
